Test results taken from US20230167467A1, “METHODS AND COMPOSITIONS FOR THE PRODUCTION OF ISOBUTENE” (University of Alaska Anchorage, priority 2020, published 2023).

Tested on: Engineered strains of E. coli
Assay type: cell-based
Conditions: for change in expression of gene adiA / change in expression of gene adiC / change in expression of gene adiY / change in expression of gene bhsA / change in expression of gene bssR / change in expression of gene bssS / change in expression of gene clpA / change in expression of gene clpB / change in expression of gene clpP / change in expression of gene coaA / change in expression of gene coaD / change in expression of gene cspA / change in expression of gene cspB / change in expression of gene cspC / change in expression of gene cspD / change in expression of gene cspE / change in expression of gene cspF / change in expression of gene dhaK / change in expression of gene dhaL / change in expression of gene dnaJ / change in expression of gene dnaK / change in expression of gene fabA / change in expression of gene fabB / change in expression of gene fabD / change in expression of gene flgA / change in expression of gene flgB / change in expression of gene flgC / change in expression of gene flgD / change in expression of gene flgE / change in expression of gene flgF / change in expression of gene flgG / change in expression of gene flgH / change in expression of gene gabD / change in expression of gene gabP / change in expression of gene gabT / change in expression of gene gadA / change in expression of gene gadB / change in expression of gene gadC / change in expression of gene gadE / change in expression of gene gadW / change in expression of gene gadX / change in expression of gene gadY / change in expression of gene glpA / change in expression of gene glpB / change in expression of gene glpC / change in expression of gene groL / change in expression of gene groS / change in expression of gene hchA / change in expression of gene hslJ / change in expression of gene hslO / change in expression of gene hslR / change in expression of gene hslU / change in expression of gene hslV / change in expression of gene ibpA / change in expression of gene ibpB / change in expression of gene lhgO / change in expression of gene lipA / change in expression of gene lipB / change in expression of gene narG / change in expression of gene narH / change in expression of gene narI / change in expression of gene narJ / change in expression of gene narK / change in expression of gene potA / change in expression of gene potB / change in expression of gene potC / change in expression of gene pspA / change in expression of gene pspB / change in expression of gene rpoA / change in expression of gene rpoB / change in expression of gene rpoC / change in expression of gene rpoD / change in expression of gene rpoE / change in expression of gene rpoH / change in expression of gene rpoN / change in expression of gene rpoS / change in expression of gene rpoZ / change in expression of gene spy / change in expression of gene tatA / change in expression of gene tatB / change in expression of gene tatC / change in expression of gene tatD / change in expression of gene tatE: after solvent exposure, vs positive control; for number of genes with significant changes in expression: vs control, Bon Ferroni corrected p-value<0.05

C=CC(C)CC (stereo not drawn) [3-methyl-1-pentene]
expression of acid resistance genes (gad, adi families): downregulated | expression of chaperone proteins groLS, spy, and dnaJK: highly upregulated | expression of dihydroxyacetone kinase genes dhaKLM: upregulated | expression of galactitol metabolism genes gatABD: upregulated | expression of heat shock proteins and chaperones hslJORUV: increased | expression of ibpAB and clpAB (protein protection and repair): increased | expression of marABC (multiple antibiotic resistance): upregulated | expression of nitrate reductase genes narGHJKP: upregulated | expression of phage shock genes pspABCDE: highly upregulated | change in expression of gene adiA: −3.34 ± 0.90 | change in expression of gene adiC: −4.45 ± 1.13 | change in expression of gene adiY: −4.27 ± 0.72 | change in expression of gene bhsA: 4.75 ± 0.60 | change in expression of gene bssR: −0.03 ± 0.44 | change in expression of gene bssS: 5.81 ± 0.84 | change in expression of gene clpA: 3.44 ± 0.63 | change in expression of gene clpB: 6.13 ± 0.69 | change in expression of gene clpP: 2.17 ± 0.59 | change in expression of gene coaA: −1.75 ± 0.90 | change in expression of gene coaD: 0.47 ± 0.93 | change in expression of gene cspA: −4.30 ± 0.58 | change in expression of gene cspB: −3.27 ± 1.33 | change in expression of gene cspC: −1.52 ± 0.93 | change in expression of gene cspD: 3.11 ± 0.58 | change in expression of gene cspE: 0.28 ± 0.63 | change in expression of gene cspF: −2.49 ± 1.08 | change in expression of gene dhaK: 3.88 ± 0.59 | change in expression of gene dhaL: 3.17 ± 0.63 | change in expression of gene dnaJ: 6.43 ± 0.69 | change in expression of gene dnaK: 4.74 ± 0.66 | change in expression of gene fabA: −0.23 ± 0.77 | change in expression of gene fabB: 2.75 ± 0.66 | change in expression of gene fabD: −0.87 ± 0.53 | change in expression of gene flgA: −2.55 ± 1.64 | change in expression of gene flgB: −5.95 ± 1.74 | change in expression of gene flgC: −5.29 ± 2.06 | change in expression of gene flgD: −5.38 ± 2.00 | change in expression of gene flgE: −4.38 ± 1.24 | change in expression of gene flgF: −3.45 ± 1.66 | change in expression of gene flgG: −4.32 ± 1.57 | change in expression of gene flgH: −3.08 ± 1.80 | change in expression of gene gabD: −0.39 ± 1.37 | change in expression of gene gabP: −0.55 ± 1.33 | change in expression of gene gabT: −0.74 ± 1.35 | change in expression of gene gadA: −3.97 ± 0.90 | change in expression of gene gadB: −2.34 ± 0.85 | change in expression of gene gadC: −1.88 ± 0.83 | change in expression of gene gadE: −5.01 ± 0.68 | change in expression of gene gadW: −5.73 ± 1.17 | change in expression of gene gadX: −2.89 ± 0.58 | change in expression of gene gadY: −4.81 ± 0.90 | change in expression of gene glpA: 7.04 ± 0.87 | change in expression of gene glpB: 4.86 ± 0.63 | change in expression of gene glpC: 5.64 ± 0.80 | change in expression of gene groL: 4.37 ± 0.57 | change in expression of gene groS: 4.22 ± 0.50 | change in expression of gene hchA: 2.03 ± 0.62 | change in expression of gene hslJ: 1.02 ± 0.67 | change in expression of gene hslO: 3.42 ± 0.64 | change in expression of gene hslR: 3.19 ± 0.66 | change in expression of gene hslU: 3.91 ± 0.56 | change in expression of gene hslV: 3.66 ± 0.61 | change in expression of gene ibpA: 9.84 ± 1.21 | change in expression of gene ibpB: 11.65 ± 1.50 | change in expression of gene lhgO: −1.08 ± 1.80 | change in expression of gene lipA: 0.62 ± 0.61 | change in expression of gene lipB: 1.26 ± 0.64 | change in expression of gene narG: 0.67 ± 0.66 | change in expression of gene narH: −0.40 ± 0.65 | change in expression of gene narI: −2.41 ± 1.20 | change in expression of gene narJ: −0.67 ± 0.73 | change in expression of gene narK: 0.15 ± 0.90 | change in expression of gene potA: −2.42 ± 0.82 | change in expression of gene potB: −1.56 ± 1.33 | change in expression of gene potC: −0.61 ± 1.22 | change in expression of gene pspA: 10.50 ± 0.55 | change in expression of gene pspB: 8.15 ± 0.68 | change in expression of gene rpoA: 0.25 ± 0.44 | change in expression of gene rpoB: 0.39 ± 0.40 | change in expression of gene rpoC: 0.99 ± 0.39 | change in expression of gene rpoD: 3.68 ± 0.70 | change in expression of gene rpoE: −2.04 ± 0.63 | change in expression of gene rpoH: 0.68 ± 0.52 | change in expression of gene rpoN: −1.52 ± 0.50 | change in expression of gene rpoS: −0.17 ± 0.48 | change in expression of gene rpoZ: −1.17 ± 0.55 | change in expression of gene spy: 3.35 ± 0.88 | change in expression of gene tatA: −1.50 ± 0.52 | change in expression of gene tatB: −1.06 ± 0.60 | change in expression of gene tatC: −1.33 ± 1.12 | change in expression of gene tatD: −2.62 ± 1.19 | change in expression of gene tatE: −0.18 ± 0.65 | number of genes with significant changes in expression: 540 genes

CCC(C)CC [3-methylpentane]
expression of acid resistance genes (gad, adi families): downregulated | expression of chaperone proteins groLS, spy, and dnaJK: highly upregulated | expression of dihydroxyacetone kinase genes dhaKLM: upregulated | expression of flagellar protein synthesis and assembly genes: downregulated | expression of gadE and adiY: significantly downregulated | expression of galactitol metabolism genes gatABD: upregulated | expression of glpABC (glycerol to glycerone phosphate): upregulated | expression of heat shock proteins and chaperones hslJORUV: strongest increases | expression of ibpAB and clpAB (protein protection and repair): strongest increases | expression of marABC (multiple antibiotic resistance): upregulated | expression of nitrate reductase genes narGHJKP: upregulated | expression of phage shock genes pspABCDE: highly upregulated | change in expression of gene adiA: −2.19 ± 0.86 | change in expression of gene adiC: −1.60 ± 1.02 | change in expression of gene adiY: −2.88 ± 0.66 | change in expression of gene bhsA: 2.98 ± 0.60 | change in expression of gene bssR: 1.81 ± 0.44 | change in expression of gene bssS: 5.42 ± 0.84 | change in expression of gene clpA: 2.69 ± 0.63 | change in expression of gene clpB: 5.30 ± 0.69 | change in expression of gene clpP: 1.74 ± 0.59 | change in expression of gene coaA: −1.35 ± 0.88 | change in expression of gene coaD: 1.13 ± 0.90 | change in expression of gene cspA: −4.58 ± 0.58 | change in expression of gene cspB: −4.38 ± 1.31 | change in expression of gene cspC: −2.37 ± 0.90 | change in expression of gene cspD: 2.53 ± 0.57 | change in expression of gene cspE: −0.36 ± 0.63 | change in expression of gene cspF: −3.22 ± 1.04 | change in expression of gene dhaK: 4.32 ± 0.58 | change in expression of gene dhaL: 3.43 ± 0.62 | change in expression of gene dnaJ: 5.07 ± 0.69 | change in expression of gene dnaK: 4.55 ± 0.66 | change in expression of gene fabA: −0.74 ± 0.75 | change in expression of gene fabB: 2.87 ± 0.66 | change in expression of gene fabD: −0.97 ± 0.52 | change in expression of gene flgA: −1.37 ± 1.53 | change in expression of gene flgB: −3.25 ± 1.50 | change in expression of gene flgC: −4.33 ± 1.93 | change in expression of gene flgD: −3.56 ± 1.87 | change in expression of gene flgE: −2.72 ± 1.17 | change in expression of gene flgF: −2.66 ± 1.57 | change in expression of gene flgG: −3.06 ± 1.48 | change in expression of gene flgH: −2.28 ± 1.70 | change in expression of gene gabD: 0.24 ± 1.31 | change in expression of gene gabP: 1.14 ± 1.28 | change in expression of gene gabT: 0.62 ± 1.27 | change in expression of gene gadA: −1.66 ± 0.69 | change in expression of gene gadB: −1.26 ± 0.80 | change in expression of gene gadC: −0.31 ± 0.80 | change in expression of gene gadE: −2.58 ± 0.60 | change in expression of gene gadW: −2.78 ± 0.95 | change in expression of gene gadX: −2.92 ± 0.57 | change in expression of gene gadY: −4.93 ± 0.81 | change in expression of gene glpA: 8.12 ± 0.87 | change in expression of gene glpB: 5.89 ± 0.63 | change in expression of gene glpC: 6.69 ± 0.79 | change in expression of gene groL: 4.27 ± 0.57 | change in expression of gene groS: 4.18 ± 0.50 | change in expression of gene hchA: 1.65 ± 0.60 | change in expression of gene hslJ: 2.40 ± 0.65 | change in expression of gene hslO: 3.37 ± 0.64 | change in expression of gene hslR: 3.53 ± 0.65 | change in expression of gene hslU: 3.65 ± 0.55 | change in expression of gene hslV: 3.32 ± 0.61 | change in expression of gene ibpA: 8.01 ± 1.21 | change in expression of gene ibpB: 9.01 ± 1.50 | change in expression of gene lhgO: 1.21 ± 1.64 | change in expression of gene lipA: 0.26 ± 0.60 | change in expression of gene lipB: 0.71 ± 0.63 | change in expression of gene narG: 4.24 ± 0.65 | change in expression of gene narH: 3.41 ± 0.61 | change in expression of gene narI: 2.28 ± 0.92 | change in expression of gene narJ: 2.34 ± 0.68 | change in expression of gene narK: 2.75 ± 0.84 | change in expression of gene potA: −2.43 ± 0.80 | change in expression of gene potB: −0.51 ± 1.28 | change in expression of gene potC: −0.27 ± 1.18 | change in expression of gene pspA: 9.23 ± 0.55 | change in expression of gene pspB: 7.09 ± 0.68 | change in expression of gene rpoA: 0.54 ± 0.44 | change in expression of gene rpoB: 0.33 ± 0.40 | change in expression of gene rpoC: 0.70 ± 0.39 | change in expression of gene rpoD: 3.38 ± 0.70 | change in expression of gene rpoE: −2.07 ± 0.62 | change in expression of gene rpoH: 0.71 ± 0.52 | change in expression of gene rpoN: −1.28 ± 0.49 | change in expression of gene rpoS: 0.53 ± 0.47 | change in expression of gene rpoZ: −1.07 ± 0.53 | change in expression of gene spy: 4.73 ± 0.87 | change in expression of gene tatA: −1.05 ± 0.51 | change in expression of gene tatB: −0.93 ± 0.58 | change in expression of gene tatC: −0.35 ± 1.08 | change in expression of gene tatD: −1.73 ± 1.12 | change in expression of gene tatE: 0.79 ± 0.63 | number of genes with significant changes in expression: 414 genes
